Patent US10426768B2, “Subcutaneous delivery of polymer conjugates of therapeutic agents” (Serina Therapeutics, Inc., priority 2011, dated 2019)
Where two headings read alike, the source gives them in different places.

What was measured:
6-OHDA Rat Model [1] = test: Rotational test in the 6-OHDA rat model, single subcutaneous dose; format: in vivo, female Sprague-Dawley rats
Protocol: (§1) In order to study the efficacy of the POZ conjugates described herein, in vivo studies were conducted with female Sprague-Dawley rats. Female Sprague-Dawley rats (275-350 g) were used in the study. Each animal underwent stereotaxic surgery and received a unilateral lesion of the right nigrostriatal pathway via injection of 12.5 μg of 6-hydroxydopamine (6-OHDA) into a single site in the medial forebrain bundle. Rats were monitored over two weeks and underwent behavioral assessment (on day −7) via the cylinder test. Animals lacking overt behavioral asymmetry ([…] ipsilateral forelimb use) were excluded from the study. The rats were them randomly assigned to one of six treatment groups (each N=8). […] The rats received a single subcutaneous dose (2 mL/kg) of vehicle (5% dextrose) or test compound dissolved in 5% dextrose.
(§2) Each group of animals (A-F as described above) were independently assessed rat for rotational behavior and forelimb symmetry on day 1, day 2, day 5 and day 9. In the rotational test, the animals were placed in an automated rotometer apparatus (MedAssociates, USA) and the net number of rotations contraversive to the lesion were recorded over a period of 6 hours on each day. In the forelimb symmetry test, the rats are placed in a clear glass cylinder without top (15 cm diameter×45 cm tall). The number of times each paw touches the side of the cylinder during an individual rear is recorded over a 10 minute observation on each day. The first limb in any rear to touch the wall is scored a single point. If both limbs contact within 0.4 s of each other, then this is scored as a ‘both’. All subsequent exploratory movements about the wall using that limb are scored independently until the other limb contacts the wall with weight support. Alternating stepping motions involving both paws one after the other receive a single score for both. The net number of contralateral touches are calculated and considered a favorable response.

6-OHDA Rat Model [2] = test: Forelimb asymmetry (cylinder) test in the 6-OHDA rat model, single subcutaneous dose; format: in vivo, female Sprague-Dawley rats
Protocol: as §1, §2

[3] = Pharmacokinetics of rotigotine in rat after intravenous and subcutaneous administration of POZ conjugates; format: in vivo, male Sprague-Dawley rats; conditions: for PK profile of plasma rotigotine, in words / Cmax values of plasma rotigotine: rat; for PK profile of plasma rotigotine, in words: SC compared with IV; for Cmax values of plasma rotigotine: at 12 hours, dosed SC at 1.6 mg/kg
Protocol: In order to study the pharmacokinetics of the POZ conjugates described herein, in vivo studies were conducted with male Sprague-Dawley rats. Twenty-seven male cannulated Sprague-Dawley rats (300-350 g) were divided into nine groups of 3 animals per group. Groups I-II received a single subcutaneous (SC) dose (right flank) of POZ acetyl rotigotine (as described in Example 6) at equivalent doses of 1.6 and 6.4 mg/kg. […] Group V received a single subcutaneous (SC) dose (right flank) of rotigotine hydrochloride at an equivalent dose of 0.5 mg/kg. Groups VI-VII received a single intravenous (IV) dose (lateral tail vein) of POZ acetyl rotigotine (as described in Example 6) at equivalent doses of 0.5 and 2.0 mg/kg. […] The test articles were dissolved in 5% dextrose injection and filtered prior to each injection. Serial blood samples were obtained from each intravenously dosed animal through the cannulated catheter, at time intervals of end of injection, 12, 24, 48, 96 and 168 hours. The time intervals for the subcutaneously dosed animals were 6, 12, 24, 48, 96 and 168 hours. The blood was processed to collect the plasma which was stored at −70° C. before analysis. The plasma samples were extracted with acetonitrile using d3-rotigotine as an internal standard and the analytes in the extract were assayed by chromatographic analysis on LC/MS-MS system using a C-18 reverse phase column with 0.9 um silica coreshell (Accucore™, Thermo Scientific, 30×2.1 mm ID and 2.6 micron particle size). The mobile phase was ammonium formate 10 mM pH3.0 (solvent A); and 90% acetonitrile, 10% methanol, and 0.1% formic acid (solvent B), eluting at 0.6 mL/min.

[4] = Water solubility of the produced polyoxazoline conjugate; format: physicochemical
[5] = Pharmacokinetics of rotigotine in monkey after subcutaneous administration of POZ conjugates; format: in vivo, female macaques (Cynomolgus monkeys); conditions: for average terminal plasma half-life (t½) of rotigotine: one subcutaneous dose, 1.5 or 4.5 mg/kg rotigotine equivalents
Protocol: The pharmacokinetics of the POZ conjugates of rotigotine was measured in normal, treatment-naïve female macaques. Animals were randomly assigned into four treatment groups, each N=3. […] The test articles were dissolved in 5% dextrose injection and filtered prior to each injection. Serial venous blood samples were obtained from each animal prior to administration of experimental agents on Day 1 and subsequently at 15 min, 30 min, 1 h, 2 h, 4 h, 6 h, 8 h, 24 h, 48 h, 96 h, 192 h, 240 h and 336 h. The blood was processed to collect the plasma which was stored at −70° C. before analysis. These plasma samples were processed and assayed by chromatographic analysis on LC/MS-MS system as described in Example 31.

[6] = rats; cited from earlier work
[7] = man; cited from earlier work
[8] = oral; cited from earlier work

| Compound | Net number of contraversive turns/6 h period (Average ± SEM; n = 8) (6-OHDA Rat Model [1]; 1.6 mg/kg SC, Day 1) | Net number of contraversive turns/6 h period (Average ± SEM; n = 8) (6-OHDA Rat Model [1]; 1.6 mg/kg SC, Day 5) | Net ipsiversive forelimb use as a percentage of total forelimb use (Average ± SEM; n = 8) (6-OHDA Rat Model [2]; 1.6 mg/kg SC, Day 2) | Net ipsiversive forelimb use as a percentage of total forelimb use (Average ± SEM; n = 8) (6-OHDA Rat Model [2]; 1.6 mg/kg SC, Day 5) | terminal plasma half-life (t½) of rotigotine ([3]; rat plasma, IV or SC dosing) | PK profile of plasma rotigotine, in words [3] | Cmax values of plasma rotigotine [3] | water solubility, in words [4] | average terminal plasma half-life (t½) of rotigotine [5] | other results |
| --- | --- | --- | --- | --- | --- | --- | --- | --- | --- | --- |
| H-[(Acetyl-Rotigotine)10(EOZ)190]—COOH 20K [POZ acetyl rotigotine] | 872 ± 232 turns/6 h period | −14 ± 14 turns/6 h period | 50 ± 13% | 85 ± 10% | 16 h | essentially the same PK profile when delivered either SC or IV | 48 ng/mL | good water solubility | – | – |
| H-[(α-Methyl-Acetyl-Rotigotine)10(EOZ)190]—COOH 20K [POZ alpha methyl acetyl rotigotine] | – | – | – | – | – | – | – | good water solubility | 9 h | – |
| H-[(Propionyl-Rotigotine)10(EOZ)190]—COOH 20K [POZ propyl rotigotine] | 1408 ± 286 turns/6 h period | 68 ± 60 turns/6 h period | 0 ± 14% | 31 ± 13% | 60 h | markedly prolonged PK profile that is near “zero order” kinetics | 6 ng/mL | good water solubility | 60 h | Net number of contraversive turns/6 h period (Average ± SEM; n = 8) (6-OHDA Rat Model [1]; 6.4 mg/kg SC, Day 1): 1272 ± 405 turns/6 h period; Net number of contraversive turns/6 h period (Average ± SEM; n = 8) (6-OHDA Rat Model [1]; 6.4 mg/kg SC, Day 5): 5142 ± 777 turns/6 h period; rotational activity, in words (6-OHDA Rat Model [1]; day 5, high dose of 6.4 mg/kg): marked and continuous contraversive rotations; PK profile of plasma rotigotine, in words ([5]; subcutaneous): markedly prolonged PK profile that is near “zero order” kinetics; Net ipsiversive forelimb use as a percentage of total forelimb use (Average ± SEM; n = 8) (6-OHDA Rat Model [2]; 6.4 mg/kg SC, Day 2): −2 ± 26%; Net ipsiversive forelimb use as a percentage of total forelimb use (Average ± SEM; n = 8) (6-OHDA Rat Model [2]; 6.4 mg/kg SC, Day 5): −6 ± 16%; forelimb use activity, in words (6-OHDA Rat Model [2]; day 5, both doses of 1.6 and 6.4 mg/kg): marked and continuous ipsiversive forelimb use |
| CCCN(CCc1cccs1)[C@H]1CCc2c(O)cccc2C1 [Rotigotine, S(−)-2-(N-propyl-N-2-thienylethylamino)-5-hydroxytetralin, reference compound] | – | – | – | – | – | – | – | – | – | oral and intraperitoneal bioavailability [6]: less than 10%; Net number of contraversive turns/6 h period (Average ± SEM; n = 8) (6-OHDA Rat Model [1]; 0.5 mg/kg SC, Day 1): 983 ± 405 turns/6 h period; Net number of contraversive turns/6 h period (Average ± SEM; n = 8) (6-OHDA Rat Model [1]; 0.5 mg/kg SC, Day 5): −49 ± 9 turns/6 h period; Net number of contraversive turns/6 h period (Average ± SEM; n = 8) (6-OHDA Rat Model [1]; 3.0 mg/kg SC, Day 1): 1570 ± 312 turns/6 h period; Net number of contraversive turns/6 h period (Average ± SEM; n = 8) (6-OHDA Rat Model [1]; 3.0 mg/kg SC, Day 5): −39 ± 15 turns/6 h period; Net ipsiversive forelimb use as a percentage of total forelimb use (Average ± SEM; n = 8) (6-OHDA Rat Model [2]; 0.5 mg/kg SC, Day 2): 60 ± 13%; Net ipsiversive forelimb use as a percentage of total forelimb use (Average ± SEM; n = 8) (6-OHDA Rat Model [2]; 0.5 mg/kg SC, Day 5): 94 ± 6%; Net ipsiversive forelimb use as a percentage of total forelimb use (Average ± SEM; n = 8) (6-OHDA Rat Model [2]; 3.0 mg/kg SC, Day 2): 9 ± 13%; Net ipsiversive forelimb use as a percentage of total forelimb use (Average ± SEM; n = 8) (6-OHDA Rat Model [2]; 3.0 mg/kg SC, Day 5): 85 ± 8%; half-life ([3]; male, Sprague-Dawley, subcutaneous, 0.5 mg/kg, rat plasma, IV or SC dosing, read-out: terminal plasma half-life (t½) of rotigotine (converted)): 2.8 h; half-life [7]: 2.5 h |
| N[C@@H](Cc1ccc(O)c(O)c1)C(=O)O [levodopa] | – | – | – | – | – | – | – | – | – | bioavailability [8]: less than 10% |
